The numbers were not newly measured in patent US11851709B2, “HER2 as a predictor of response to dual HER2 blockade in the absence of cytotoxic therapy” (FUNDACIÓ PRIVADA INSTITUT D'INVESTIGACIÓ ONCOLÓGICA DE VALL …, priority 2016, dated 2023), which cites them from elsewhere.

The test system of one series is HER2+ breast cancer. The conditions noted are these: at 4.5-years; added to adjuvant trastuzumab and chemotherapy; statistically non-significant.
The test system of series [1] is node-positive breast cancer. As to conditions: interaction between HER2 positivity and addition of paclitaxel; P=0.01.

Take `CS(=O)(=O)CCNCc1ccc(-c2ccc3ncnc(Nc4ccc(OCc5cccc(F)c5)c(Cl)c4)c3c2)o1` [lapatinib]: the “absolute benefit in DFS” value in the series on HER2+ breast cancer is approximately 2%.

For the compound `CC(=O)O[C@H]1C(=O)[C@@]2(C)[C@H]([C@H](OC(=O)c3ccccc3)[C@]3(O)C[C@H](OC(=O)[C@H](O)[C@@H](NC(=O)c4ccccc4)c4ccccc4)C(C)=C1C3(C)C)[C@]1(OC(C)=O)CO[C@@H]1C[C@@H]2O` [paclitaxel], the “hazard ratio for recurrence” value in series [1] is listed as 0.59.
